Test results as given in patent publication US12144788B2, “Visual cycle modulators” (CASE WESTERN RESERVE UNIVERSITY, priority 2017, dated 2024).
“Also recorded” adds a separate entry of the source.

Tests used:
[1] = system: visual chromophore regeneration in C57BL6J mouse eyes; experiment: visual chromophore recovery assay (ocular 11-cis-retinal by HPLC after bleach); assay type: in vivo
Protocol: FIG. 4 illustrates inhibition of visual chromophore regeneration in C57BL6J mouse eyes by MB compounds. The MB drugs were administrated to mice by oral gavage 24 h prior to light exposure for 10 min. Then all mice recovered under darkness for 6 h.
Abca4^−/−Rdh8^−/− mice on a C57BL/6J background were generated as previously described. Male and female WT mice with C57BL/6J backgrounds were obtained from The Jackson Laboratory. Abca4^−/−Rdh8^−/− mice used in this study were homozygous for the Leu450 allele of Rpe65 as determined by a genotyping protocol published previously and free of Crb1/rd8 and rd/rd mutations Animals were housed either in the animal facility at the Case Western Reserve University School of Medicine, where they received a standard chow diet (LabDiet 5053) and were maintained under a 12-h light (˜300 lux) and 12-h dark cycle or at the Cole Eye Institute animal facility where they were. Mice were dark adapted overnight prior to all experiments. A cohort of Rdh8^−/−Abca4^−/− or C57BL/6J mice was used when they reached the age of 1 to 2 months, and both sexes were used evenly. All tested primary amines were suspended in 100 μl soybean oil with less than 10% (v/v) DMSO and were administered by oral gavage with a 22-gauge feeding needle. Experimental manipulations in the dark were done under dim red light transmitted through a Kodak No. 1 Safelight Filter (transmittance >560 nm).
After bright light exposure resulting in photoactivation of 95% of rhodopsin, mice were kept in the dark for 6 h. Then, the animals were euthanized and their eyes were collected and homogenized in 10 mM sodium phosphate buffer, pH 7.4, containing 50% methanol (v/v) and 40 mM hydroxylamine. The resulting mixture was extracted with 4 ml of hexanes.
Next, we tested the effects of the MB compound series on retinoid cycle function in the living mouse. […] After the light treatment, mice were allowed to dark adapt for 6 h before their ocular retinoid content was determined by HPLC. […] To examine the possibility that the lack of MB-008 efficacy at 24 h was due to insufficient concentrations resulting from a shorter elimination half-life or poorer bioavailability, we repeated the experiment with the mice subjected to light exposure 4 h after MB-008 administration. A 100 μg dose of MB-008 suppressed visual chromophore regeneration by ˜80%, supporting the idea that the retinal concentration of MB-008 could be sub-effective at the longer post-treatment light challenge.

[2] = quantification of MB-005 in mouse eyes by LC-ESI-MS/MS; assay type: in vivo; conditions: 1 mg dose oral gavage
Protocol: MB-005 (1 mg/mouse) was administrated by oral gavage to C57BL/6J mice, which were then kept in the dark for 4-24 h. Then, mice were euthanized, and their eyes were homogenized in 1 ml of 10 mM sodium phosphate buffer, pH 7.4, containing 50% methanol (v/v). The resulting mixture was extracted with 4 ml EtOAc. […] This solution (100 μl) was analyzed by liquid chromatography—electrospray ionization—MS/MS (LC-ESI-MS/MS) (4.6 mm×150 mm; Agilent ZORBAX Eclipse XDB-C18) with a gradient of acetonitrile in water (0%-100% in 30 min) as the eluent at a flow rate of 0.5 ml/min.
To confirm the ocular distribution of this compound series, we directly measured the quantity of MB-005 in the eye by mass spectrometry after a 1 mg dose. […] This minimal change in ocular MB-005 concentration contrasts with the ˜3-fold greater inhibition of visual cycle function observed at 4 h versus 24 h for this compound.

RPE65 = RPE65 (Bos taurus, UniProt Q28175); experiment: in vitro retinoid isomerase activity assay with bovine RPE microsomes; conditions: up to concentrations of 50 μM
Sequence of RPE65 (Q28175 whole entry): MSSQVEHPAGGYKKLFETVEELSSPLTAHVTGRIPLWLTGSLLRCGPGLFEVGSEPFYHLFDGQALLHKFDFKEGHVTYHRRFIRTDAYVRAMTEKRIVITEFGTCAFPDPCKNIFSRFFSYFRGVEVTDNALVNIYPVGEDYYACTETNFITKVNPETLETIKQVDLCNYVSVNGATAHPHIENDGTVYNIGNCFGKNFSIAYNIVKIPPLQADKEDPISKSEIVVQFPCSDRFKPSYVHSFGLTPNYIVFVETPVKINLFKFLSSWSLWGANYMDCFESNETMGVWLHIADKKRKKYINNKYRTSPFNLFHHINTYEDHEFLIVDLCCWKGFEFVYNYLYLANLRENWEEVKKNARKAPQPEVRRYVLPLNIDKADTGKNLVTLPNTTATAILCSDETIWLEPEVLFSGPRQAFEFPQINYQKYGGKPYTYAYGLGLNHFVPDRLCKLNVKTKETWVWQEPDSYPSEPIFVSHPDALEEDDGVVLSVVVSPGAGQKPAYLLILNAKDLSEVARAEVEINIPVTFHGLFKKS
Protocol: Primary amines were pre-incubated with bovine RPE microsomes at room temperature for 5 min, then all-trans-retinol was added and the mixtures were incubated at 37° C. All incubation mixtures were quenched by the addition of methanol after 1 h of incubation. Inhibition of RPE65 enzymatic activity was measured as a decline in 11-cis-retinol production.
Synthesized primary amine (1 μl in DMF, with the final concentration ranging between 50 nM and 50 μM) was added to 10 mM Bis-Tris propane/HCl buffer, pH 7.4, containing 150 μg RPE microsomes, 1% BSA, 1 mM disodium pyrophosphate, and 20 μM aporetinaldehyde-binding protein 1 (CRALBP). The resulting mixture was pre-incubated at room temperature for 5 min. Then, all-trans-retinol (1 μl in DMF, at a final concentration of 20 μM) was added. The resulting mixture was incubated at 37° C. for 1 h. The reaction was quenched by adding 300 μl methanol, and products were extracted with 300 μl hexanes. Production of 11-cis-retinol was quantified by normal-phase HPLC with 10% (v/v) EtOAc in hexanes as the eluent at a flow rate of 1.4 ml/min. Retinoids were detected by monitoring their absorbance at 325 nm and quantified based on a standard curve representing the relationship between the amount of synthetic 11-cis-retinol standard and the area under the corresponding chromatographic peak.
To test these structural predictions, we examined the inhibitory activity of the compounds against RPE65 activity in an in vitro retinoid isomerase assay using bovine RPE microsomes as the enzyme source.

SMILES: CC(C)c1cc(OCC2CCCCC2)cc(C(O)CCN)c1 (centres unmarked) [MB-005, 3-Amino-1-(3-(cyclohexylmethoxy)-5-isopropylphenyl)propan-1-ol]
- effect on 11-cis-retinal recovery / visual cycle function ([1]; 500 μg (0.5 mg/mouse) oral gavage 24 h before light exposure, 6 h dark): minimal effects; also recorded: no measurable effect
- visual cycle function ([1]; 2 mg/mouse oral gavage): severely impaired
- fold greater inhibition of visual cycle function at 4 h versus 24 h ([1]; 4 h versus 24 h between dose and light): ~3 fold
- effect of shortening the time between drug administration and the light challenge ([1]; shorter interval versus 24 h): enhanced the inhibitory effects
- inhibition of 11-cis-retinal recovery (suppression of visual chromophore regeneration) ([1]; two-fold higher dose than 500 μg (1 mg per mouse), oral gavage 24 h before light exposure): ~50% and approximately 60%
- ocular level of MB-005 ([2]; 6 h after treatment): ~140 ng/eye
- ocular level of MB-005 ([2]; 24 h post-treatment time point versus 6 h): declined only slightly
- inhibition against retinoid isomerization (RPE65): minimal or no inhibition
